Here are results for eleven compounds from EP1144368B1, “ACETYLENIC ALPHA-AMINO ACID-BASED SULFONAMIDE HYDROXAMIC ACID TACE INHIBITORS” (priority 1999, dated 2000).

The inhibition is the share of the control response that was lost under treatment. In general, pIC50 refers to the negative decadic logarithm of the IC50, by convention in mol/L.

pIC50: −log10 of the molar value. Where a name gives a salt, the structure may show the parent alone. Read-outs that look alike come from different tables or passages of the source.

Assay [1] deals with THP-1 cells. Put plainly: THP-1 Soluble Protein Assay (LPS-stimulated; ELISA of TNF-a, TNF-R p75/80, TNF-R p55/60, IL-8). To be noted: for inhibition at 3 µM: Homo sapiens. It is filed as cell-based, human. In general terms: In an ELISA, binding on a coated surface is turned into a signal by an enzyme label.
Description: Each vial of cells are cultured for about two weeks prior to being used for an assay and then are used for only 4 to 6 weeks to screen compounds.
Plates are placed into an incubator set at 5% CO2 and at 37° C. After 4 hours of incubation, 300 ml/well of tissue culture supernatant (TCS) is removed for use in an TNF-a ELISA.
Percent change in each soluble protein evaluated from the "vehicle positive control" was calculated for each compound concentration with the following formula: % Change =(pg/ml (compound) - pg/ml (veh pos control))/(pg/ml (veh pos control) - pg/ml (veh neg control))x 100 [formula]
For the soluble protein (TNF-a, p75/80, p55/60, IL-8) studies under stimulated conditions, the mean pg/ml of duplicate wells were determined and the results expressed as percent change from "vehicle positive control".
The target of assay [2] is TACE (Homo sapiens, UniProt P78536). Description: TACE inhibition (fluorescent peptidyl substrate). It is filed as biochemical. To be noted: read-out: TACE IC50.
Description: Using 96-well black microtiter plates, each well receives a solution composed of 10 µL TACE (final concentration 1µg/mL), 70µL Tris buffer, pH 7.4 containing 10% glycerol (final concentration 10 mM), and 10 µL of test compound solution in DMSO (final concentration 1µM, DMSO concentration <1%) and incubated for 10 minutes at room temperature.
The reaction is read (excitation 340 nm, emission 420 nm) for 10 min. and the increase in fluorescence over time is plotted as a linear line. The slope of the line is calculated and represents the reaction rate.
The linearity of the reaction rate is confirmed (r^2 >0.85). The mean (x±sem) of the control rate is calculated and compared for statistical significance (p<0.05) with drug-treated rates using Dunnett's multiple comparison test.
For assay [3], the target named is MMP-13 (Homo sapiens, UniProt P45452). Description: MMP-13 inhibition (thiopeptide or fluorescent peptide substrate). It is filed as biochemical.
Description: (§1) The enzyme activity is measured by the rate of the color increase. The thiopeptide substrate is made up fresh as a 20 mM stock in 100% DMSO and the DTNB is dissolved in 100% DMSO as a 100 mM stock and stored in the dark at room temperature. Both the substrate and DTNB are diluted together to 1 mM with substrate buffer (50 mM HEPES pH 7.5, 5 mM CaCl2) before use. The stock of enzyme is diluted with buffer (50 mM HEPES, pH 7.5, 5 mM CaCl2, 0.02% Brij) to the desired final concentration.
(§2) Alternatively, a fluorescent peptide substrate is used. In this test procedure, the peptide substrate contains a fluorescent group and a quenching group. Upon cleavage of the substrate by an MMP, the fluorescence that is generated is quantitated on the fluorescence plate reader. The assay is run in HCBC assay buffer (50mM HEPES, pH 7.0, 5 mM Ca^+2, 0.02% Brij, 0.5% Cysteine), with human recombinant MMP-1, MMP-9, or MMP-13. The substrate is dissolved in methanol and stored frozen in 1 mM aliquots. For the assay, substrate and enzymes are diluted in HCBC buffer to the desired concentrations. Compounds are added to the 96 well plate containing enzyme and the reaction is started by the addition of substrate.
(§3) For either the thiopeptide or fluorescent peptide test procedures, the slope of the line is calculated and represents the reaction rate. The linearity of the reaction rate is confirmed (r^2 >0.85). The mean (x±sem) of the control rate is calculated and compared for statistical significance (p<0.05) with drug-treated rates using Dunnett's multiple comparison test.
Assay [4] deals with MMP-9 (Homo sapiens, UniProt P14780). Put plainly: MMP-9 inhibition (thiopeptide or fluorescent peptide substrate). It counts as biochemical.
Description: as §1, §2, §3
Assay [5] deals with T1, MMP-1 (Homo sapiens, UniProt P03956).
T1 sequence (P03956 100-469): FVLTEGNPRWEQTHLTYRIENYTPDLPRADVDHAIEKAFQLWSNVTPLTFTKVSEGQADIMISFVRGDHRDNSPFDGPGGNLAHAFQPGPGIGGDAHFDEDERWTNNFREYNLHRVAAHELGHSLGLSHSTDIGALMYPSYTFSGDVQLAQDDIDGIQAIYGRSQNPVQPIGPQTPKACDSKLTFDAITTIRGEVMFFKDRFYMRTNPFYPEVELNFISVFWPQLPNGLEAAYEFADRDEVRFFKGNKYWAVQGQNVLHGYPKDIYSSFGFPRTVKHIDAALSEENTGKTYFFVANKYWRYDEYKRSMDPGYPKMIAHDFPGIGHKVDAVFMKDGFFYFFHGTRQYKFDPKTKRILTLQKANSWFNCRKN
Description: MMP-1 inhibition (thiopeptide or fluorescent peptide substrate). It counts as biochemical.
Description: as §1, §2, §3

[6] abbreviates: THP-1, read-out: THP % inhibition @ 3 µM, 3 µM.

Chain of TACE (P78536 215-824): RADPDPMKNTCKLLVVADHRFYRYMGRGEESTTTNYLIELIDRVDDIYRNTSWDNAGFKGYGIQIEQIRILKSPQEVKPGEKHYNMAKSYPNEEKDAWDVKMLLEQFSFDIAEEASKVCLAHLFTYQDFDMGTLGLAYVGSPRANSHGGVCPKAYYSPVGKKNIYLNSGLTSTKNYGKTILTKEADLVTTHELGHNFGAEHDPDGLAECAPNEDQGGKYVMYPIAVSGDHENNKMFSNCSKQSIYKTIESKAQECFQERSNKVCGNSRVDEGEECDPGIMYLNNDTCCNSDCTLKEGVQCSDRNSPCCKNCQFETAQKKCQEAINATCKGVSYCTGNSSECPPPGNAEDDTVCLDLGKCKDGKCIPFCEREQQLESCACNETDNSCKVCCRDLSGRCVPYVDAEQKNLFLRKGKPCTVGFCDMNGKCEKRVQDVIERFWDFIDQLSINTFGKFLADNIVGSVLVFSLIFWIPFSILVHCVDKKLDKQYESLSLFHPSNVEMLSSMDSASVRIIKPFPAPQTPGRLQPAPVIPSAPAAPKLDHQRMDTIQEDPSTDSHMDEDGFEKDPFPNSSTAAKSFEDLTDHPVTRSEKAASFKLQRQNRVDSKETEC
Chain of MMP-9 (P14780 107-707 limits assumed): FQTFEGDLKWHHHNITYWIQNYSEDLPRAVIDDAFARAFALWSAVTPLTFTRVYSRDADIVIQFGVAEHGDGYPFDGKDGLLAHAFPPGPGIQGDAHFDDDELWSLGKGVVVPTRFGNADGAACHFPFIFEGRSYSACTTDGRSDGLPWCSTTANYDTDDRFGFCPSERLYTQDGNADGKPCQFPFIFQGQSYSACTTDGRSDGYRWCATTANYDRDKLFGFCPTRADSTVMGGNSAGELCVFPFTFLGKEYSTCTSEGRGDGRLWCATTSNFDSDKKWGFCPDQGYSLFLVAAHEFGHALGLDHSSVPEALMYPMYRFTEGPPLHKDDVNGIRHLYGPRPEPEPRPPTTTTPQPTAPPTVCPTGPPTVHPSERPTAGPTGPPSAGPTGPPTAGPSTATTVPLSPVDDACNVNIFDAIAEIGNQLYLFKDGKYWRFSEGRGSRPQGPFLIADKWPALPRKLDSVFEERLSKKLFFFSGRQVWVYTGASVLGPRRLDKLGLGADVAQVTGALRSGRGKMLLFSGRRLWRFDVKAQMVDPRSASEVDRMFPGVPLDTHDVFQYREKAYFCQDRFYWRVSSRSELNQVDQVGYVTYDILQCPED

`CC#CCOc1ccc(S(=O)(=O)N(C)C(C(=O)NO)C(C)(C)SCCN2CCCC2C(=O)OC)cc1` (centres unmarked) [Example 145]: in assay [1] (setting [6]), the inhibition at 3 µM is 83%. The negative logarithm of the IC50 (pIC50) in assay [2] was 6.96; in assay [3] it was 8.60; in assay [4] it was 8.15; in assay [5], 7.74.

In the case of `CC#CCOc1ccc(S(=O)(=O)N(C)[C@@H](C)C(=O)NO)cc1` [Example 107, (2S)-2-[(4-But-2-ynyloxy-benzenesulfonyl)-methyl-amino]-N-hydroxy-propionamide], the negative logarithm of the IC50 (pIC50) in assay [2] was 8.35; in assay [4] it was 7.17; in assay [5], 6.48.

Regarding `CC#CCOc1ccc(S(=O)(=O)N(CC(=O)NO)Cc2cccnc2)cc1` [Example 23, 2-[(4-But-2-ynyloxy-benzenesulfonyl)-pyridin-3-ylmethyl-amino]-N-hydroxy-acetamide hydrochloride], the inhibition at 3 µM in assay [1] (THP-1, read-out: THP % inhibition @ 3 µM) was 63%. Also, the pIC50 in assay [3] was 7.70; in assay [4], 7.40; in assay [5], 5.94.

On to `CC#CCOc1ccc(S(=O)(=O)N(CC#CCN(CC)CC)C(C(=O)NO)C(C)C)cc1` (centres unmarked) [Example 126, 2-{{[4-(2-Butynyloxy)phenyl]sulfonyl}[4-(diethylamino)-2-butynyl]amino}-N-hydroxy-3-methylbutanamide], for which, in assay [1] (setting [6]), the inhibition at 3 µM was found to be 93%. For the same compound, the pIC50 in assay [2] is 7.14; in assay [3] it was 7.44; in assay [4], 6.83; in assay [5], 6.67.

On to `CC#CCSc1ccc(S(=O)(=O)N(C)CC(=O)NO)cc1` [Example 134, 2-[(4-But-2-ynylthiophenylsulfonyl)methylamino]-N-hydroxyacetamide], for which the inhibition at 3 µM in assay [1] (setting [6]) amounted to 14%. In addition, the pIC50 was 7.08 in assay [3], 6.95 in assay [4] and 5.31 in assay [5].

On to `CN(CC(=O)NO)S(=O)(=O)c1ccc(OCC#Cc2ccc(Cl)cc2)cc1` [Example 132, 2-[[(4-{[3-(4-Chlorophenyl)-2-propynyl]oxy}phenyl)sulfonyl](methyl)amino]-N-hydroxyacetamide], for which, in assay [1] (setting [6]), the inhibition at 3 µM worked out at 27%. The pIC50 in assay [2] is 5.96; in assay [3], 5.95; in assay [4], 5.62; in assay [5] it was less than 5.00.

Consider `CC#CCOc1ccc(S(=O)(=O)N(C)C(CSCc2ccccc2)C(=O)NO)cc1` (centres unmarked) [Example 156, 3-(Benzylthio) -2-[[[4-(2-butynyloxy)phenyl]sulfonyl]methylamino] -N-hydroxypropanamide], for which the inhibition at 3 µM in assay [1] (setting [6]) amounted to 75%. In addition, the pIC50 in assay [2] is 8.32; in assay [3] it was 8.35; in assay [4], 7.96.

Regarding `CC#CCOc1ccc(S(=O)(=O)N2CC(CNC(=O)OC(C)(C)C)SC(C)(C)C2C(=O)NO)cc1` [Example 274, tert-Butyl{(2S,5S)-4-{[4-(2-butynyloxy)phenyl]sulfonyl}-5-[(hydroxyamino)carbonyl]-6,6-dimethylthiomorpholinyl}methylcarbamate], in assay [1], the “THP % inhibition @ 3 µM” value is reported as 84%. Besides, the negative logarithm of the IC50 (pIC50) in assay [2] (Tables 11-14) was 7.23; in assay [4] it was 6.97.

Consider “2-[(4-But-2-ynyloxy-benenesulfonyl)-methyl-amino]-N-hydroxy-3-methyl-3-ethylsulfanyl-butyramide [Example 150]”, for which the “THP % inhibition @ 3 µM” value in assay [1] is 86%. For the same compound, the pIC50 was 7.29 in assay [2], 8.03 in assay [3], 7.70 in assay [4] and 7.60 in assay [5].

On to `C#CCNc1ccc(S(=O)(=O)N(C)CC(=O)NO)cc1` [Example 133, N-Hydroxy-2-(methyl{[4-(prop-2-ynylamino)phenyl]sulfonyl}amino)acetamide], for which the inhibition at 3 µM in assay [1] (setting [6]) is 8%. In addition, the values for the pIC50 in assay [2], in assay [3] and in assay [4] were 6.92, 6.12 and 5.82, respectively.

Consider `CC#CCOc1ccc(S(=O)(=O)N(C)C(C(=O)NO)C(C)(C)SCCCN(CC)CC)cc1` (centres unmarked) [Example 148], for which the inhibition at 3 µM in assay [1] (setting [6]) came to 87%. Also, the pIC50 in assay [2] is 7.06; in assay [3], 8.28; in assay [4] it was 8.32; in assay [5], 7.60.
